Converted amounts (≈) assume the structure as drawn. Like-named read-outs stand apart in the source and are kept apart here. Positions of bridges follow the written chain, without caps; N, C: chain ends. Non-standard residues stand in square brackets, D forms with d. Residues, ends and D or L forms follow the SMILES beside them. *: point of attachment. CH2CH2OBz(4-tBu) = CC(C)(C)c1ccc(C(=O)OCC*)cc1; Ethyl(2-decanoyloxy) = CCCCCCCCCC(=O)OCC*; Ethyl(2-butanoyloxy) = CCCC(=O)OCC*; Ethyl(2-propionyloxy) = CCC(=O)OCC*; Ethyl(2-OPiv) = CC(C)(C)C(=O)OCC*; Ethyl(2-OBz) = O=C(OCC*)c1ccccc1; Octanoyl = CCCCCCCC(=O)*; Dab = NCC[C@H](N)C(=O)O; Butyryl = CCCC(=O)*
Columns and labels:
P. aeruginosa ATCC 27853 = assay type: cell-based, Pseudomonas aeruginosa
Source text: (§1) All 81 compounds prepared in Examples 2 and 3 underwent screening against a panel of Gram-negative bacterium to assess their ability to inhibit bacterial growth. […] The median value is presented.

A. baumannii ATCC 19606 = assay type: cell-based, Acinetobacter baumannii
Source text: as §1

E. coli ATCC 25922 = assay type: cell-based, Escherichia coli
Source text: as §1

E. coli ATCC MS8345 = assay type: cell-based, Escherichia coli
Source text: as §1
Expansion of the polymyxin macrocycle by substituting […]) offered little advantage in antimicrobial activity but was generally well tolerated although for A. baumanni and P. aeruginosa this was detrimental.

[1] = tested on: K. pneumoniae ATCC 700603; assay type: cell-based, Klebsiella pneumoniae
Source text: as §1

K. pneumoniae ATCC 33495 = assay type: cell-based, Klebsiella pneumoniae
Source text: as §1

[2] = tested on: K. pneumoniae ATCC MS6671; assay type: cell-based, Klebsiella pneumoniae
Source text: as §1

[3] = colistin-resistant strain, median of triplicate

Row | MIC P. aeruginosa ATCC 27853 (P. aeruginosa ATCC 27853; ATCC 27853) | MIC A. baumannii ATCC 19606 (A. baumannii ATCC 19606; ATCC 19606) | MIC E. coli ATCC 25922 (E. coli ATCC 25922; ATCC 25922) | MIC E. coli ATCC MS8345 (E. coli ATCC MS8345; ATCC MS8345) | MIC K. pneumoniae ATCC 700603 ([1]; ATCC 700603) | MIC K. pneumoniae ATCC 33495 (K. pneumoniae ATCC 33495; ATCC 33495) | MIC K. pneumoniae ATCC MS6671 ([2]; ATCC MS6671) | SMILES | MIC P. aeruginosa ATCC 27853 (P. aeruginosa ATCC 27853; median of triplicate) | MIC A. baumannii ATCC 19606 (A. baumannii ATCC 19606; median of triplicate) | MIC E. coli ATCC 25922 (E. coli ATCC 25922; median of triplicate) | MIC E. coli ATCC MS8345 (E. coli ATCC MS8345; [3]) | MIC K. pneumoniae ATCC 700603 ([1]; median of triplicate) | MIC K. pneumoniae ATCC 33495 (K. pneumoniae ATCC 33495; median of triplicate) | MIC K. pneumoniae ATCC MS6671 ([2]; median of triplicate)
1 | 1 µg/mL (≈ 0.733 µM) | 1 µg/mL (≈ 0.733 µM) | 2 µg/mL (≈ 1.47 µM) | 2 to 4 µg/mL | 4 µg/mL (≈ 2.93 µM) | 0.5 µg/mL (≈ 0.366 µM) | >32 µg/mL | CCCCCCCCCC(=O)OCCSC[C@H](N)C(=O)N[C@@H](CCN)C(=O)N[C@H](C(=O)N[C@@H](CCN)C(=O)N[C@H]1CCNC(=O)[C@H]([C@@H](C)O)NC(=O)[C@H](CCN)NC(=O)[C@H](CCN)NC(=O)[C@H](CC(C)C)NC(=O)[C@@H](Cc2ccccc2)NC(=O)[C@H](CCN)NC1=O)[C@@H](C)O [Compound 31] (H-C(Ethyl(2-decanoyloxy))[Dab]T[Dab][Dab][Dab][dF]L[Dab][Dab]T; lactam 5-C) | – | – | – | – | – | – | –
2 | 1 µg/mL (≈ 0.772 µM) | 1 µg/mL (≈ 0.772 µM) | 0.25 µg/mL (≈ 0.193 µM) | 16 µg/mL (≈ 12.4 µM) | 0.5 µg/mL (≈ 0.386 µM) | 0.125 µg/mL (≈ 0.0966 µM) | >32 µg/mL | CC(C)C[C@@H]1NC(=O)[C@@H](Cc2ccccc2)NC(=O)[C@H](CCN)NC(=O)[C@@H](NC(=O)[C@H](CCN)NC(=O)[C@@H](NC(=O)[C@H](CCN)NC(=O)[C@@H](N)CSCCOC(=O)C(C)(C)C)[C@@H](C)O)CCNC(=O)[C@H]([C@@H](C)O)NC(=O)[C@H](CCN)NC(=O)[C@H](CCN)NC1=O [Compound 32] (H-C(Ethyl(2-OPiv))[Dab]T[Dab][Dab][Dab][dF]L[Dab][Dab]T; lactam 5-C) | – | – | – | – | – | – | –
3 | 0.5 µg/mL (≈ 0.365 µM) | 1 µg/mL (≈ 0.73 µM) | 1 µg/mL (≈ 0.73 µM) | 1 µg/mL (≈ 0.73 µM) | 1 µg/mL (≈ 0.73 µM) | 0.25 µg/mL (≈ 0.182 µM) | >32 µg/mL | CC(C)C[C@@H]1NC(=O)[C@@H](Cc2ccccc2)NC(=O)[C@H](CCN)NC(=O)[C@@H](NC(=O)[C@H](CCN)NC(=O)[C@@H](NC(=O)[C@H](CCN)NC(=O)[C@@H](N)CSCCOC(=O)c2ccc(C(C)(C)C)cc2)[C@@H](C)O)CCNC(=O)[C@H]([C@@H](C)O)NC(=O)[C@H](CCN)NC(=O)[C@H](CCN)NC1=O [Compound 34] (H-C(CH2CH2OBz(4-tBu))[Dab]T[Dab][Dab][Dab][dF]L[Dab][Dab]T; lactam 5-C) | – | – | – | – | – | – | –
4 | 16 µg/mL (≈ 11.6 µM) | 16 µg/mL (≈ 11.6 µM) | 0.25 µg/mL (≈ 0.181 µM) | 32 µg/mL (≈ 23.1 µM) | 0.25 to 0.5 µg/mL | 0.25 to 0.5 µg/mL | >32 µg/mL | CCCC(=O)OCCSC[C@@H]1NC(=O)[C@@H](Cc2ccccc2)NC(=O)[C@H](CCN)NC(=O)[C@@H](NC(=O)[C@H](CCN)NC(=O)[C@@H](NC(=O)[C@H](CCN)NC(=O)[C@@H](N)CSCCOC(=O)CCC)[C@@H](C)O)CCNC(=O)[C@H]([C@@H](C)O)NC(=O)[C@H](CCN)NC(=O)[C@H](CCN)NC1=O [Compound 36] (H-C(Ethyl(2-butanoyloxy))[Dab]T[Dab][Dab][Dab][dF]C(Ethyl(2-butanoyloxy))[Dab][Dab]T; lactam 5-C) | – | – | – | – | – | – | –
5 | 4 µg/mL (≈ 2.58 µM) | 4 µg/mL (≈ 2.58 µM) | 2 to 4 µg/mL | 4 µg/mL (≈ 2.58 µM) | 4 µg/mL (≈ 2.58 µM) | 2 µg/mL (≈ 1.29 µM) | >32 µg/mL | CCCCCCCCCC(=O)OCCSC[C@@H]1NC(=O)[C@@H](Cc2ccccc2)NC(=O)[C@H](CCN)NC(=O)[C@@H](NC(=O)[C@H](CCN)NC(=O)[C@@H](NC(=O)[C@H](CCN)NC(=O)[C@@H](N)CSCCOC(=O)CCCCCCCCC)[C@@H](C)O)CCNC(=O)[C@H]([C@@H](C)O)NC(=O)[C@H](CCN)NC(=O)[C@H](CCN)NC1=O [Compound 37] (H-C(Ethyl(2-decanoyloxy))[Dab]T[Dab][Dab][Dab][dF]C(Ethyl(2-decanoyloxy))[Dab][Dab]T; lactam 5-C) | – | – | – | – | – | – | –
6 | 2 µg/mL (≈ 1.28 µM) | 2 µg/mL (≈ 1.28 µM) | 2 to 4 µg/mL | 4 µg/mL (≈ 2.56 µM) | 2 µg/mL (≈ 1.28 µM) | 2 to 4 µg/mL | >32 µg/mL | C[C@@H](O)[C@@H]1NC(=O)[C@H](CCN)NC(=O)[C@H](CCN)NC(=O)[C@H](CSCCOC(=O)c2ccc(C(C)(C)C)cc2)NC(=O)[C@@H](Cc2ccccc2)NC(=O)[C@H](CCN)NC(=O)[C@@H](NC(=O)[C@H](CCN)NC(=O)[C@@H](NC(=O)[C@H](CCN)NC(=O)[C@@H](N)CSCCOC(=O)c2ccc(C(C)(C)C)cc2)[C@@H](C)O)CCNC1=O [Compound 40] (H-C(CH2CH2OBz(4-tBu))[Dab]T[Dab][Dab][Dab][dF]C(CH2CH2OBz(4-tBu))[Dab][Dab]T; lactam 5-C) | – | – | – | – | – | – | –
7 | – | – | – | – | – | – | – | C[C@@H](O)[C@@H]1NC(=O)[C@H](CCN)NC(=O)[C@H](CCN)NC(=O)[C@H](CSCCOC(=O)c2ccccc2)NC(=O)[C@@H](Cc2ccccc2)NC(=O)[C@H](CCN)NC(=O)[C@@H](NC(=O)[C@H](CCN)NC(=O)[C@@H](NC(=O)[C@H](CCN)NC(=O)[C@@H](N)CSCCOC(=O)c2ccc(C(C)(C)C)cc2)[C@@H](C)O)CCNC1=O [Compound 41] (H-C(CH2CH2OBz(4-tBu))[Dab]T[Dab][Dab][Dab][dF]C(Ethyl(2-OBz))[Dab][Dab]T; lactam 5-C) | 2 µg/mL (≈ 1.33 µM) | 2 µg/mL (≈ 1.33 µM) | 1 µg/mL (≈ 0.663 µM) | 4 µg/mL (≈ 2.65 µM) | 1 to 2 µg/mL | 2 to 4 µg/mL | >32 µg/mL
8 | >32 µg/mL | >32 µg/mL | 2 µg/mL (≈ 1.44 µM) | >32 µg/mL | 2 to 4 µg/mL | 16 µg/mL (≈ 11.6 µM) | >32 µg/mL | CCC(=O)OCCSC[C@H](N)C(=O)N[C@@H](CCN)C(=O)N[C@H](C(=O)N[C@@H](CCN)C(=O)N[C@H]1CCNC(=O)[C@H]([C@@H](C)O)NC(=O)[C@H](CCN)NC(=O)[C@H](CCN)NC(=O)[C@H](CSCCOC(=O)C(C)(C)C)NC(=O)[C@@H](Cc2ccccc2)NC(=O)[C@H](CCN)NC1=O)[C@@H](C)O [Compound 43] (H-C(Ethyl(2-propionyloxy))[Dab]T[Dab][Dab][Dab][dF]C(Ethyl(2-OPiv))[Dab][Dab]T; lactam 5-C) | – | – | – | – | – | – | –
9 | 16 µg/mL (≈ 11.6 µM) | 2 to 4 µg/mL | 0.25 µg/mL (≈ 0.181 µM) | 16 to 32 µg/mL | 0.25 to 0.5 µg/mL | 0.25 to 0.5 µg/mL | >32 µg/mL | CCC(=O)OCCSC[C@@H]1NC(=O)[C@@H](Cc2ccccc2)NC(=O)[C@H](CCN)NC(=O)[C@@H](NC(=O)[C@H](CCN)NC(=O)[C@@H](NC(=O)[C@H](CCN)NC(=O)[C@@H](N)CSCCOC(=O)C(C)(C)C)[C@@H](C)O)CCNC(=O)[C@H]([C@@H](C)O)NC(=O)[C@H](CCN)NC(=O)[C@H](CCN)NC1=O [Compound 45] (H-C(Ethyl(2-OPiv))[Dab]T[Dab][Dab][Dab][dF]C(Ethyl(2-propionyloxy))[Dab][Dab]T; lactam 5-C) | – | – | – | – | – | – | –
10 | – | – | – | – | – | – | – | CCCC(=O)N[C@@H](CSCCOC(=O)c1ccccc1)C(=O)N[C@@H](CCN)C(=O)N[C@H](C(=O)N[C@@H](CCN)C(=O)N[C@H]1CCNC(=O)[C@H]([C@@H](C)O)NC(=O)[C@H](CCN)NC(=O)[C@H](CCN)NC(=O)[C@H](CSCCOC(=O)c2ccccc2)NC(=O)[C@@H](Cc2ccccc2)NC(=O)[C@H](CCN)NC1=O)[C@@H](C)O [Compound 50] (Butyryl-C(Ethyl(2-OBz))[Dab]T[Dab][Dab][Dab][dF]C(Ethyl(2-OBz))[Dab][Dab]T; lactam 5-C) | 1 µg/mL (≈ 0.657 µM) | 1 to 2 µg/mL | 0.5 µg/mL (≈ 0.328 µM) | 16 µg/mL (≈ 10.5 µM) | 1 µg/mL (≈ 0.657 µM) | 0.5 to 1 µg/mL | >32 µg/mL
11 | – | – | – | – | – | – | – | CCCCCCCC(=O)N[C@@H](CSCCOC(=O)c1ccccc1)C(=O)N[C@@H](CCN)C(=O)N[C@H](C(=O)N[C@@H](CCN)C(=O)N[C@H]1CCNC(=O)[C@H]([C@@H](C)O)NC(=O)[C@H](CCN)NC(=O)[C@H](CCN)NC(=O)[C@H](CSCCOC(=O)c2ccccc2)NC(=O)[C@@H](Cc2ccccc2)NC(=O)[C@H](CCN)NC1=O)[C@@H](C)O [Compound 51] (Octanoyl-C(Ethyl(2-OBz))[Dab]T[Dab][Dab][Dab][dF]C(Ethyl(2-OBz))[Dab][Dab]T; lactam 5-C) | 2 µg/mL (≈ 1.27 µM) | 1 to 2 µg/mL | 2 µg/mL (≈ 1.27 µM) | 2 to 4 µg/mL | 2 to 4 µg/mL | 2 µg/mL (≈ 1.27 µM) | >32 µg/mL

— patent publication US20250282827A1, “LIPIDATED POLYMYXIN ANALOGUES” (priority 2021, published 2025)
